Entries after “also recorded” stand apart in the source; their conditions may differ.
Key:
Type in all cases: biochemical
[1] = target: PRMT6 (Homo sapiens, UniProt Q96LA8); assay: selectivity of YD1113/YD1290 on PRMT panel, PRMT6; conditions: vs YD1113
Experimental: (§1) The selectivity of compounds YD1113 and YD1290 on PRMTs were performed by Reaction Biology Corp.
(§2) Next, the selectivity of YD1113 was investigated on a panel of PRMTs at 10 μM.
(§3) After validating the benzyl urea moiety as an unconventional homocysteine mimic of SAH for PRMTs, it was hypothesized that incorporating the benzyl urea moiety into the original pan PRMT inhibitor II757 would build a potent bisubstrate inhibitor. […] To enable a stable tri-substitution, the sulfur atom with a nitrogen atom was replaced. YD1290 was synthesized following the reported methods 9, 15 and tested in a radioactivity assay for PRMTs (FIG. 6b).

[2] = target: T1, SETD7 (Homo sapiens, UniProt Q8WTS6); assay: selectivity, SAHH-coupled assay SETD7; conditions: 100 μM
T1 construct: H3-21 peptide as substrate
T1 sequence (Q8WTS6 whole entry): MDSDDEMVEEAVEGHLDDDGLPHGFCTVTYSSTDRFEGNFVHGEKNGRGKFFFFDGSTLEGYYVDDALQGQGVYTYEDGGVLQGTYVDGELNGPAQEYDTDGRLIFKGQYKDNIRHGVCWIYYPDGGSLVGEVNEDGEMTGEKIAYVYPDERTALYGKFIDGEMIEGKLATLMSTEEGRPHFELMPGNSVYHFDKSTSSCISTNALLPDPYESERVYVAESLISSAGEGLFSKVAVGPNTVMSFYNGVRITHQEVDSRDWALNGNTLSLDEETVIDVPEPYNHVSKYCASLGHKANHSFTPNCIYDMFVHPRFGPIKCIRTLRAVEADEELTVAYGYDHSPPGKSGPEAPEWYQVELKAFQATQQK
Experimental: (§4) A fluorescence-based SAHH-coupled assay was applied to study the effect of the compound on methyltransferase activity of NTMT1, SETD7, G9a, NNMT, tbPRMT7 and SAHH. For NTMT1, the assay was performed in a final well volume of 100 μL: 25 mM Tris (pH=7.5), 50 mM KCl, 0.01% Triton X-100, 5 μM.
(§5) SAHH, 0.1 μM NTMT1, 3 μM AdoMet, and 10 μM ThioGlo4. After incubation for 10 min with the inhibitor, reactions were initiated by the addition of 0.5 μM GPKRIA peptide, and the reaction was monitored for 15 min. For SETD7, the assay was performed in a final well volume of 100 μL: 25 mM potassium phosphate buffer (pH=7.6), 0.01% Triton X-100, 5 μM SAHH, 1 μM SETD7, 2 μM AdoMet, and 10 μM ThioGlo1. After incubation for 10 min with the inhibitor, reactions were initiated by the addition of 90 μM H3-21 peptide, and the reaction was monitored for 15 min. […] After incubation for 10 min with the inhibitor, reactions were initiated by the addition of 10 μM nicotinamide, and the reaction was monitored for 18 min. […] After incubation for 10 min with the inhibitor, reactions were initiated by the addition of 60 μM H4-21 peptide, and the reaction was monitored for 15 min. […]
(§6) All experiments were performed in duplicate. Fluorescence was monitored on a BMG CLARIOstar microplate reader with excitation at 380 nm and emission at 505 nm. […]

[3] = target: PRMT3 (Homo sapiens, UniProt O60678); assay: selectivity of YD1113/YD1290 on PRMT panel, PRMT3; conditions: vs YD1113
PRMT3, sequence (O60678 whole entry, species assumed): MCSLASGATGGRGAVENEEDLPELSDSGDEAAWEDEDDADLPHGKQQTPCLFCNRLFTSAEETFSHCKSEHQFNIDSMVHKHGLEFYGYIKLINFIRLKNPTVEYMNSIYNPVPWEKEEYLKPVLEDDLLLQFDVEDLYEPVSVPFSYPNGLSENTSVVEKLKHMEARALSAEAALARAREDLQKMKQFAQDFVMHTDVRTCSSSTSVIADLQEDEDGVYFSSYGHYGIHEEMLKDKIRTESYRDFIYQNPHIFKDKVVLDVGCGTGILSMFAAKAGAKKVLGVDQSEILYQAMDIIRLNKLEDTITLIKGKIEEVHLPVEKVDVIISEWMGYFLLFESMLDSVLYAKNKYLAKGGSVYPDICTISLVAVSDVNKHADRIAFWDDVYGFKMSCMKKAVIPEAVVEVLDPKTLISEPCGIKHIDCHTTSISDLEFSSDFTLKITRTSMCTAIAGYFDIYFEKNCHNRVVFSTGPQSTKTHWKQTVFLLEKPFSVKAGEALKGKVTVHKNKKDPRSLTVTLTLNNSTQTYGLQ
Experimental: as §1, §2, §3

[4] = test system: type I PRMTs; assay: inhibition of type I PRMTs (summary)
Experimental: as §1

[5] = target: T2, PRMT1 (Homo sapiens, UniProt Q99873); assay: inhibition mechanism study on PRMT1, SAHH-coupled fluorescence; conditions: role: inhibitor
T2 construct: made in house
T2 sequence (Q99873 whole entry, species assumed): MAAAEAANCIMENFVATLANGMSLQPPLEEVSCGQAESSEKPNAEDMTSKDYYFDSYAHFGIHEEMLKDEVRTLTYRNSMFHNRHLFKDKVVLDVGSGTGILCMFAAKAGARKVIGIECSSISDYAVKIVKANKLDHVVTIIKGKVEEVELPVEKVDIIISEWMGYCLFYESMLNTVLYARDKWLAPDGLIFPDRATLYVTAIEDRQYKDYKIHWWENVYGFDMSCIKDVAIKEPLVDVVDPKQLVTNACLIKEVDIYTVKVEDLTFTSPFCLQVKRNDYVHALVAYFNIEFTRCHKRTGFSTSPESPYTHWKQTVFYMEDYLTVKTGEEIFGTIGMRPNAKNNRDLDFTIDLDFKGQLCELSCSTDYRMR
Experimental: The inhibition mechanism of YD1290 was study on PRMT1 with the fluorescence-based SAHH-coupled assay. Varying concentrations of SAM (from 5 to 40 μM) with 4 μM fixed concentration of H4-21 or varying concentration of H4-21 (from 4 to 32 μM) with 5 μM fixed concentration of SAM were included in reactions at concentration of YD1290 ranging from 0.15 nM to 10 μM.
All the IC50 values were determined in triplicate. Fluorescence was monitored on a BMG CLARIOstar microplate reader with excitation 380 nm and emission 505 nm. Data were processed by using GraphPad Prism software 8.0.
To confirm the potent inhibition activities of YD1290 on type I PRMTs resulting from bisubstrate characteristics, its inhibition mechanism on PRMT1 was determined through the SAHH-coupled fluorescence-based assay.

[6] = test system: SAHH; assay: selectivity, SAHH; conditions: 100 μM
Experimental: The effect of the inhibitors on the coupled enzyme, SAHH, was also evaluated. The assay was performed in a final well volume of 100 μL: 25 mM Tris (pH=7.5), 50 mM KCl, 0.01% Triton X-100, 0.1 μM SAHH, and 15 μM ThioGlo1. After incubation for 10 min with the compound, 0.5 μM SAH was added to initiate the reactions.
All experiments were performed in duplicate. Fluorescence was monitored on a BMG CLARIOstar microplate reader with excitation at 380 nm and emission at 505 nm.
To examine the selectivity, the inhibition of YD1290 on four inhouse methyltransferases, including protein N-terminal methyltransferase 1 (NTMT1), nicotinamide N-methyltransferase (NNMT), and two protein lysine methyltransferases PKMT (G9a and SETD7) were tested.

[7] = target: T3, PRMT4 (Homo sapiens, UniProt Q86X55); assay: selectivity of YD1113/YD1290 on PRMT panel, PRMT4
T3 sequence (Q86X55 1-608): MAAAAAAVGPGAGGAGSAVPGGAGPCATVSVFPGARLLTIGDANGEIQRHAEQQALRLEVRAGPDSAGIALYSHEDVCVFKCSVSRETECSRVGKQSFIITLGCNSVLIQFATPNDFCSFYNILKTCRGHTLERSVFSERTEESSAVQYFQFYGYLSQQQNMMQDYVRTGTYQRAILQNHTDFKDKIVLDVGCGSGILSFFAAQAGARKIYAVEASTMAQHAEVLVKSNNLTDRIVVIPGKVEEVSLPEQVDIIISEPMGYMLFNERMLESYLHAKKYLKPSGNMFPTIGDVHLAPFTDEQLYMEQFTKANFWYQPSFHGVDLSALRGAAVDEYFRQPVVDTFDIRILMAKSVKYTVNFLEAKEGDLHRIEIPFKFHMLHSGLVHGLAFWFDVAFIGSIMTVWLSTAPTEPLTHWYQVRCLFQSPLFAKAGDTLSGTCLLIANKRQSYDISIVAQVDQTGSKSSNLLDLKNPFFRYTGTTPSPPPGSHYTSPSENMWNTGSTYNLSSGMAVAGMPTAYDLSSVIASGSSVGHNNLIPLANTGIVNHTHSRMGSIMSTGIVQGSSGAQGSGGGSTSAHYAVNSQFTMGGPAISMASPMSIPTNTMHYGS
Experimental: as §1, §2, §3

[8] = target: G9a (Homo sapiens, UniProt Q96KQ7); assay: selectivity, SAHH-coupled assay G9a; conditions: 100 μM
G9a, sequence (Q96KQ7 whole entry): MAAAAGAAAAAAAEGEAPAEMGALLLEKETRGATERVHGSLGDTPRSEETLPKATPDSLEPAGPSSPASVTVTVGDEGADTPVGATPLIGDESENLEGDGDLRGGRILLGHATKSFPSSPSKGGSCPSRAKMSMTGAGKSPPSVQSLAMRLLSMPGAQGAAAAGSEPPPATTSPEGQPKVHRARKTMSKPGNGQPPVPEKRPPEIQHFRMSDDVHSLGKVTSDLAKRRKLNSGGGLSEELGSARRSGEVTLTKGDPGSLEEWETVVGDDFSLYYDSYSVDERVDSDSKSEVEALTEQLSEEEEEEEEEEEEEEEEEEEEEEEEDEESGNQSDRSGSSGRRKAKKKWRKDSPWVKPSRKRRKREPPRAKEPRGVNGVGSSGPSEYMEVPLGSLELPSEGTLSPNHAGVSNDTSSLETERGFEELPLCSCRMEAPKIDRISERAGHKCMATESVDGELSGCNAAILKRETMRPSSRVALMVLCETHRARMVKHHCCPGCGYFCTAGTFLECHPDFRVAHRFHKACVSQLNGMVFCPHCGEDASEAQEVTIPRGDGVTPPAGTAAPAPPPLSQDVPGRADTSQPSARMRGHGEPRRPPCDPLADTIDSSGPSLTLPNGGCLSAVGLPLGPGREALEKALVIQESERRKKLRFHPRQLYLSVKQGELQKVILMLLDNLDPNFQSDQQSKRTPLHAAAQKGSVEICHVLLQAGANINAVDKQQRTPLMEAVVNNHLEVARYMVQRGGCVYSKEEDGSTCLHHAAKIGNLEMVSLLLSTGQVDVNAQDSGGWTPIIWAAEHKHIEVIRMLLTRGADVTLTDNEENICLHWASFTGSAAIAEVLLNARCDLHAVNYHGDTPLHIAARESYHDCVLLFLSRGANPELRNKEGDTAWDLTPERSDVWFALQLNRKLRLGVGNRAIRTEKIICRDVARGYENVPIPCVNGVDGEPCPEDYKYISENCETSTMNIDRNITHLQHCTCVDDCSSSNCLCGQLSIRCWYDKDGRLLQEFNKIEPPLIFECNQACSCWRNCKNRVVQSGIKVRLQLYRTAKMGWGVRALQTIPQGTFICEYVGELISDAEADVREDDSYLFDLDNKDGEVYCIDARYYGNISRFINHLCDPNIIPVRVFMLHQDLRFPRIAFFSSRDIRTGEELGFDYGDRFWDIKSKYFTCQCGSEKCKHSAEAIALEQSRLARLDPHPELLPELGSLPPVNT
Experimental: as §4, §5, §6

[9] = target: PRMT8 (Homo sapiens, UniProt Q9NR22); assay: selectivity of YD1113/YD1290 on PRMT panel, PRMT8; conditions: vs YD1113
PRMT8, sequence (Q9NR22 whole entry, species assumed): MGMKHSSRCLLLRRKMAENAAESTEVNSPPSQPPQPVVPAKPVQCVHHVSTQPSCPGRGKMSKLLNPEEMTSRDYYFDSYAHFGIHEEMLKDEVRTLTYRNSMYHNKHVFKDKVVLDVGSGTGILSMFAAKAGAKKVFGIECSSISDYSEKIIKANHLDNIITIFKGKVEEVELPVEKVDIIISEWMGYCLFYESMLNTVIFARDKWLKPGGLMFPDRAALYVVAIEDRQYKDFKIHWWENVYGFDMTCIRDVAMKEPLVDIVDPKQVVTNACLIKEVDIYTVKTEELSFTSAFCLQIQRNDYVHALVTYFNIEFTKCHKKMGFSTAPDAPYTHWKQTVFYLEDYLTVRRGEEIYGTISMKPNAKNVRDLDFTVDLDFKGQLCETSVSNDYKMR
Experimental: as §1, §2, §3

[10] = test system: PRMTs; assay: radioactivity assay, all tested PRMTs
Experimental: as §1, §3

[11] = target: T4, NNMT (Homo sapiens, UniProt P40261); assay: selectivity, SAHH-coupled assay NNMT; conditions: 100 μM
T4 construct: nicotinamide as substrate
T4 sequence (P40261 whole entry): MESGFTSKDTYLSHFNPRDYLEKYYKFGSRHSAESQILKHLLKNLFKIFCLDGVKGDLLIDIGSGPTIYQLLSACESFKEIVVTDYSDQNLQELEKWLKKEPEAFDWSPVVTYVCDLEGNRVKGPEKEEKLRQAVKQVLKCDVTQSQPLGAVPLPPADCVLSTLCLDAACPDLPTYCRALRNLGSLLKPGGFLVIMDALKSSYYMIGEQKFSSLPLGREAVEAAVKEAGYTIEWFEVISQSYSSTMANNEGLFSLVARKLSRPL
Experimental: as §4, §5, §6

[12] = target: T5, NTMT1 (Homo sapiens, UniProt Q9BV86); assay: selectivity, SAHH-coupled assay NTMT1; conditions: 100 μM
T5 construct: GPKRIA peptide as substrate
T5 sequence (Q9BV86 whole entry): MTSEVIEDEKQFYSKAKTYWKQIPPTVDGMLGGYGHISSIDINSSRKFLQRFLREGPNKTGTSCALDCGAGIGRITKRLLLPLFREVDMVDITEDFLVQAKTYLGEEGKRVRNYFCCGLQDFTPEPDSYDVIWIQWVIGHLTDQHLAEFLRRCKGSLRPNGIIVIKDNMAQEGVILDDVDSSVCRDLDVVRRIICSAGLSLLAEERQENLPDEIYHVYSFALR
Experimental: as §4, §5, §6

[13] = target: T2, PRMT1; assay: selectivity of YD1113/YD1290 on PRMT panel, PRMT1; conditions: vs YD1113
Experimental: as §1, §2, §3

PRMT6, sequence (Q96LA8 whole entry, species assumed): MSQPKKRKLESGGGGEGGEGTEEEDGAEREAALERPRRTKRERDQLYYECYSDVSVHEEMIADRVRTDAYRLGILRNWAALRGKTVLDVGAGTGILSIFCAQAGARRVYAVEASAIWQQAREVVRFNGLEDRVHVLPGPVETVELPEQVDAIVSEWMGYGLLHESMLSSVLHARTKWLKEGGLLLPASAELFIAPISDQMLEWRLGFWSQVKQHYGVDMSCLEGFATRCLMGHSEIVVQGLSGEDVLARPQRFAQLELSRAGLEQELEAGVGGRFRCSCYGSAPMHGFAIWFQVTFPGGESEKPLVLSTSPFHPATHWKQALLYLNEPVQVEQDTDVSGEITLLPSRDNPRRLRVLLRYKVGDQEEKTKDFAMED

N=C(NCCCN(CCNC(=O)NCc1ccccc1)C[C@H]1O[C@@H](n2cnc3c(N)ncnc32)[C@H](O)[C@@H]1O)Nc1cccc(Br)c1 [YD1290]
fold potency to PRMT6 compared to YD1113 [1]: > 80 fold | inhibition of SETD7 [2]: did not display any significant inhibition | fold potency to PRMT3 compared to YD1113 [3]: > 80 fold | IC50 [4]: < 5 nM | inhibition mechanism vs peptide substrate, PRMT1 ([5]; H4-21 4 to 32 μM, SAM 5 μM fixed): slightly increased when the ratio of peptide/Km increased; also recorded: peptide-site competitive inhibitor of PRMT1 | inhibition mechanism vs SAM, PRMT1 ([5]; SAM 5 to 40 μM, H4-21 4 μM fixed): SAM-site competitive inhibitor of PRMT1 | inhibition of SAHH [6]: did not display any significant inhibition | PRMT4 activity ([7]; 1.5 nM, radioactivity assay): completely abolished PRMT4 activity | fold potency to PRMT4 compared to YD1113 ([7]; vs YD1113): > 80 fold | inhibition of G9a [8]: did not display any significant inhibition | fold potency to PRMT8 compared to YD1113 [9]: > 80 fold | potency to all tested PRMTs [10]: demonstrated potency to all tested PRMTs | inhibition of NNMT [11]: did not display any significant inhibition | inhibition of NTMT1 [12]: did not display any significant inhibition | fold potency to PRMT1 compared to YD1113 [13]: > 80 fold

Reference: US20260306527A1, “PRMT INHIBITOR COMPOUNDS AND THE USES THEREOF” (Purdue Research Foundation, priority 2023, published 2026)
